Reference: ChEMBL document CHEMBL1143871, “Small P-gp modulating molecules: SAR studies on tetrahydroisoquinoline derivatives” (Bioorg Med Chem, 2008)
pEC50: −log10 of the molar value.

What was measured:
[1] = molecular target: T1, ATP-dependent translocase ABCB1 (Homo sapiens, UniProt P08183); assay: Inhibition of human Pgp mediated [3H]vinblastine transport in human Caco-2 cells; format: cell-based
[2] = Apparent permeability from basolateral to apical side of human Caco-2 cell membrane; format: ADME, cell-based
[3] = Apparent permeability from apical to basolateral side of human Caco-2 cell membrane; format: ADME, cell-based
MCF7 [4] = assay: Cytotoxic activity against adriamycin resistant human MCF7 cells assessed as LDH release at 100 uM after 24 hrs; format: functional
[5] = molecular target: T1, ATP-dependent translocase ABCB1; assay: Inhibition of human Pgp in adriamycin resistant MCF7 cells assessed as fold increase in accumulation of doxorubicin at 20 uM relative to control; format: cell-based; conditions: mcf7, 20 µM
MCF7 [6] = assay: Antiproliferative activity against adriamycin resistant human MCF7 cells assessed by MTT assay at 100 uM after 48 hrs
[7] = Ratio of apparent permeability from basolateral to apical over apical to basolateral side of human Caco-2 cell membrane
[8] = molecular target: T1, ATP-dependent translocase ABCB1; assay: Activation of human Pgp ATPase in human Caco-2 cells at 100 uM; format: cell-based; conditions: caco-2, 100 µM

T1 sequence (P08183 whole entry): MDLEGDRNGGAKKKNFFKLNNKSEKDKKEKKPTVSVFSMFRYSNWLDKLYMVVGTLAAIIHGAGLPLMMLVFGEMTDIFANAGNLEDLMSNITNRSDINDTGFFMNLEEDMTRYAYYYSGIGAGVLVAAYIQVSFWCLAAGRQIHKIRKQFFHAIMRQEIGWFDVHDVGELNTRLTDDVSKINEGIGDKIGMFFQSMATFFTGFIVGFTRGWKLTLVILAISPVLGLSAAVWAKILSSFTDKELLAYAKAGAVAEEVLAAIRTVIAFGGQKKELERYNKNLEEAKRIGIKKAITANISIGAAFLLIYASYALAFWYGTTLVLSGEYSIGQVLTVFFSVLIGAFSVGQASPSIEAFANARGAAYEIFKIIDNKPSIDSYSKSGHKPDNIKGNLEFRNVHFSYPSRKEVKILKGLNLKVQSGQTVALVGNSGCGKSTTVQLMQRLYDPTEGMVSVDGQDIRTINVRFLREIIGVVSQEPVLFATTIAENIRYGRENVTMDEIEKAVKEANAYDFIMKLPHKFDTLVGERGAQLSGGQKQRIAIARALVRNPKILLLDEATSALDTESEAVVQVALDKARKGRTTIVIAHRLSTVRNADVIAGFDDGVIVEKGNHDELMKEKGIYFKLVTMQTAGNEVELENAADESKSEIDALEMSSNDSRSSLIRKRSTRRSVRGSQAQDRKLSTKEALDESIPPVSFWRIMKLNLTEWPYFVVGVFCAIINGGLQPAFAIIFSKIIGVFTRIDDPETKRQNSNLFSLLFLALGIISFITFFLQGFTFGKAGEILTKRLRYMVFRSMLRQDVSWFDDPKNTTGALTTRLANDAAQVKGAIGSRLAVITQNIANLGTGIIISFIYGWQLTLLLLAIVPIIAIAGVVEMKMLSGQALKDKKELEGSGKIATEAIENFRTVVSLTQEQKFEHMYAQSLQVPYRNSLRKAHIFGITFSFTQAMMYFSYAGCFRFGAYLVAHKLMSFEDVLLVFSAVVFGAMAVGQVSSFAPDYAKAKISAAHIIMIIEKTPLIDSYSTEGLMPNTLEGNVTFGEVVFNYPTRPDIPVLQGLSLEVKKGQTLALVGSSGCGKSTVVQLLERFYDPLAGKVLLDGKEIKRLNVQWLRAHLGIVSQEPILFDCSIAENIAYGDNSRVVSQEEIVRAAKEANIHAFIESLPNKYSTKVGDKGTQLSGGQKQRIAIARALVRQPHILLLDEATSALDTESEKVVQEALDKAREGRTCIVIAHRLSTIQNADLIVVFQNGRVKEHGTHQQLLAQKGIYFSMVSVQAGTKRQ

| Compound | pEC50 [1] | Papp B→A [2] [×10⁻⁶ cm/s] | Papp A→B [3] [×10⁻⁶ cm/s] | Activity (MCF7 [4]) [%] | Activity [5] | Activity (MCF7 [6]) [%] | efflux ratio [7] | Activity [8] [%] |
| --- | --- | --- | --- | --- | --- | --- | --- | --- |
| COc1ccc2c(c1)/C(=C/CCN1CCc3cc(OC)c(OC)cc3C1)CCC2 | 5.31 | 657 | 166 | <20 | 4.1 | <20 | 3.9 | – |
| COc1cccc2c1CCCC2CCCN1CCN(C2CCCCC2)CC1 (stereo not drawn) | 6.26 | 436 | 250 | – | – | – | 1.7 | – |
| COc1ccc2c(c1)C(CCCN1CCc3cc(OC)c(OC)cc3C1)=CCC2 | 4.45 | 332 | 61 | – | – | – | 5.4 | 20 |
| COc1ccc2c(c1)CCC=C2CCCN1CCc2cc(OC)c(OC)cc2C1 | 4.08 | 151 | 40.7 | – | – | – | 3.7 | – |
| COc1cccc2c1CCC/C2=C\CCN1CCCCC1 | 5.09 | 256 | 58.4 | – | – | – | 4.4 | – |
| COc1cc2c(cc1OC)CN(CCCC1CCCc3c(OC)cccc31)CC2 (stereo not drawn) | 5.20 | 104 | 5.6 | <20 | 4.8 | <20 | 18 | 70 |
| COc1cc2c(cc1OC)CN(CCC=C1CCCCC1)CC2 | 4.82 | 240 | 77.4 | – | – | – | 3.1 | – |
| COc1cc2c(cc1OC)CN(CCCC1CCCc3cc(OC)c(OC)cc31)CC2 (stereo not drawn) | 4.75 | 440 | 86.8 | – | – | – | 5.1 | 62 |
| COc1cc2c(cc1OC)CN(CCCC1=CCCc3cc(OC)c(OC)cc31)CC2 | 4.50 | 103 | 67.2 | – | – | – | 1.5 | 15 |
| COc1ccc2c(c1)CCCC2CCCN1CCc2cc(OC)c(OC)cc2C1 (stereo not drawn) | 5.09 | 351 | 82.8 | – | – | – | 4.2 | 27 |
| COc1cc2c(cc1OC)CN(CCCC1=CCCc3c(OC)cccc31)CC2 | 4.82 | 114 | 16 | – | – | – | 7.1 | 30 |
| COc1cc2c(cc1OC)CN(CC/C=C1\CCCc3c(OC)cccc31)CC2 | 5.79 | 38.6 | 23.7 | <20 | 5.7 | 25 | 1.6 | – |
| COc1ccc2c(c1)C(CCCN1CCc3cc(OC)c(OC)cc3C1)CCC2 (stereo not drawn) | 4.99 | 170 | 46 | – | – | – | 3.7 | 15 |
